Results published in ChEMBL document CHEMBL3632557, “Ethynylphenyl carbonates and carbamates as dual-action acetylcholinesterase inhibitors and anti-inflammatory agents” (Bioorg Med Chem Lett, 2015).

Target: Acetylcholinesterase (Electrophorus electricus, UniProt O42275)
Sequence (O42275 whole entry): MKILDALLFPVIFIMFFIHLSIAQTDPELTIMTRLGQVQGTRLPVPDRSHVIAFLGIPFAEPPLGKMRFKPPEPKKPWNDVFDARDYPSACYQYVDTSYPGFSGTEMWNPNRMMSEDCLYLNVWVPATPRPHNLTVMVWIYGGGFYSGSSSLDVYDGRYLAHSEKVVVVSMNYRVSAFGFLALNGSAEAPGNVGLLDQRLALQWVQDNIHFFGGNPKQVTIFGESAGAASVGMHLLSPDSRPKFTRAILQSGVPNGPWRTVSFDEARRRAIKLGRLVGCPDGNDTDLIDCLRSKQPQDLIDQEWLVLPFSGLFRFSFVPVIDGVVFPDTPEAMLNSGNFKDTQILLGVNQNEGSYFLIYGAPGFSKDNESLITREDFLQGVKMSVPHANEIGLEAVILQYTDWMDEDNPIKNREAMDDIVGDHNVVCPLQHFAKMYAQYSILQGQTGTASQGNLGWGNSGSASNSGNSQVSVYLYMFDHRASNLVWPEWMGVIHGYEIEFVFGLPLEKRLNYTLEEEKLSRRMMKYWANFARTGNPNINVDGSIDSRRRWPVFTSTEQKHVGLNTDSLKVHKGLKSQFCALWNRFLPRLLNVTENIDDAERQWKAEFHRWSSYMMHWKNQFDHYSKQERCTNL
Description: Inhibition of Electrophorus electricus acetylcholinesterase using acetylthiocholineiodide as substrate measured at 30 secs intervals over 9 mins by Ellman's colorimetric assay

SMILES | IC50 [µM]
C#Cc1ccc(OC(=O)OCCC(C)(C)C)cc1 | 59
C#Cc1ccc(NC(=O)OCC[Si](C)(C)C)cc1 | 34.4
